The values that follow come from patent US12295396B2, “Antagonists of T2R54 and compositions and uses thereof” (Firmenich Incorporated, priority 2018, dated 2025).

This test has as its target T1, hT2R54 (Homo sapiens, UniProt P59534).
T1 construct: expressed in transfected cells; it overexpresses a promiscuous G protein
T1 sequence (P59534 1-338): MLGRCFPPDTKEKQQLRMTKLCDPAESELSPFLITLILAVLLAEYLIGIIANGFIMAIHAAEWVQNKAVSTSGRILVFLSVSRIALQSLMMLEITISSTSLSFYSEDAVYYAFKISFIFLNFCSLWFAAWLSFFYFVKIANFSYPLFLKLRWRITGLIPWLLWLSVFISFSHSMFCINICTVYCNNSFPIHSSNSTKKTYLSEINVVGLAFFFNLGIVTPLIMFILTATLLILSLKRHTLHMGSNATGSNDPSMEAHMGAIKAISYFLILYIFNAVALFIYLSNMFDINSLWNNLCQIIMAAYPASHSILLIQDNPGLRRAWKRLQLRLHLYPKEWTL
The test is described as follows: Cell-based assay for measuring hT2R54 inhibition (FLIPR calcium, Fluo4AM, acetaminophen as bitter agonist). As to conditions: cells stably expressing hT2R54 and a promiscuous G protein, read-out: hT2R54 IC50. The protocol: Cells stably expressing hT2R54 and a promiscuous G protein were seeded in 384 well plates 24 hours prior to the experiment. Cells were loaded with the calcium indicator Fluo4AM, washed and loaded in a FLIPR instrument with a compound plate containing increasing doses of acetaminophen in quadruplicates and prepared at 2× of final concentration. Baseline was recorded for 10 seconds, then 25 μl of […] was added onto 25 μl of cells and resulting changes in fluorescence were monitored over an additional 3 minutes. The host cell line overexpressing the G protein but not hT2R54 was treated as described above.
The ability of a test compound that blocks bitter taste elicited through hT2R54 was measured in this assay, as follows. Cells stably expressing hT2R54 and a promiscuous G protein were seeded in 384 well plates 24 hours prior to the experiment. Cells were loaded with the calcium indicator Fluo4AM, washed and loaded in a FLIPR instrument with a compound plate containing increasing doses of acetaminophen in buffer and increasing doses of acetaminophen with depicted fixed concentrations of Cmpd 109 (Table 4). Base line was recorded for 10 seconds, then 25 μl of compound and compound mixtures were added onto 25 μl of cells and resulting changes in fluorescence were monitored over an additional 3 minutes. The concentration of test compound that blocks half of the response when the bitter compound alone is present is presented as the EC50 or IC50 value.
In the examples above, the EC50 of compounds for blocking bitter taste elicited through T2R54 was measured in the same manner.

Where two headings read alike, the source gives them in different places.

Consider `CCOC(=O)C1CCN(CC(=O)Nc2cc3c(cc2C(C)=O)OCO3)CC1` [compound 116, Ethyl 1-(2-((6-acetylbenzo[d][1,3]dioxol-5-yl)amino)-2-oxoethyl)piperidine-4-carboxylate], for which, where the note is “Table 4”, the IC50 was 103 nM.
For the compound `CCOC(=O)C1CCCN(CC(=O)Nc2cc3c(cc2OC)OCO3)C1` (stereo not shown) [compound 117, Ethyl 1-(2-((6-Methoxybenzo[d][1,3]dioxol-5-yl)amino)-2-oxoethyl)piperidine-3-carboxylate], the IC50 (Table 4) came out at 188 nM.
Same read-out and setting: in the case of `CCOC(=O)C1CCCN(CC(=O)Nc2cc3c(cc2C(C)=O)OCCO3)C1` (stereo not shown) [compound 118, Ethyl 1-(2-((7-Acetyl-2,3-dihydrobenzo[b][1,4]dioxin-6-yl)amino)-2-oxoethyl)piperidine-3-carboxylate] it was 24 nM.
For `CC(=O)c1cc2c(cc1NC(=O)CN1CC(C)OC(C)C1)OCO2` (stereo not shown) [compound 119], the IC50 (Table 4) was 246 nM.
On the same count and under the same terms, with `CC(=O)c1cc2c(cc1NC(=O)CN1CCC(O)CC1)OCO2` [compound 120] the figure was less than 10 nM; with `COC1CCN(CC(=O)Nc2cc3c(cc2C(C)=O)OCO3)CC1` [compound 121], 65 nM; with `CC(=O)c1cc2c(cc1NC(=O)CN1CCCC(O)C1)OCO2` (stereo not shown) [compound 122], less than 20 nM.
On the same count and under the same terms, with `COC1CCCN(CC(=O)Nc2cc3c(cc2C(C)=O)OCO3)C1` (stereo not shown) [compound 123] the figure was 2 nM; with `COC1CCN(C(C)(C)C(=O)Nc2cc3c(cc2C(C)=O)OCO3)CC1` [compound 124], 2140 nM; with `COC(=O)C1CCN(CC(=O)Nc2cc3c(cc2C(C)=O)OCO3)CC1` [compound 125], 100 nM.
The same measure, in the same setting: with `COC(=O)C1CN(CC(=O)Nc2cc3c(cc2C(C)=O)OCO3)CCC1=O` (stereo not shown) [compound 126] the figure was 154 nM; with `CCOC(=O)C1CN(CC(=O)Nc2cc3c(cc2C(C)=O)OCO3)CCO1` (stereo not shown) [compound 127], 13 nM; with `CCOC(=O)C1COCCN1CC(=O)Nc1cc2c(cc1C(C)=O)OCO2` (stereo not shown) [compound 128], 79 nM.
In the case of `CC(=O)c1cc2c(cc1NC(=O)CN1CCN(C(=O)OC(C)(C)C)CC1)OCO2` [compound 129], under “Table 4”, the IC50 is less than 1000 nM.
With `CC(=O)c1cc2c(cc1NC(=O)CN(C)C1CCCCC1)OCO2` [compound 130], the IC50 (Table 4) worked out at 312 nM.
Same read-out and setting: with `CCN(CCOC)CC(=O)Nc1cc2c(cc1C(C)=O)OCO2` [compound 131] the figure was 2000 nM; with `COC(=O)CN(C)CC(=O)Nc1cc2c(cc1C(C)=O)OCO2` [compound 132], 659 nM.
On to `CCOC(=O)CCN(C)CC(=O)Nc1cc2c(cc1C(C)=O)OCO2` [compound 133], for which the IC50 (Table 4) amounted to 113 nM.
Still for that read-out and setting: with `CC(=O)c1cc2c(cc1NC(=O)CN(C)CCC(=O)N(C)C)OCO2` [compound 134] the figure was 960 nM.
The same measure, in the same setting: with `CCNC(=O)CCN(C)CC(=O)Nc1cc2c(cc1C(C)=O)OCO2` [compound 135] the figure was 500 nM; with `CCOC(=O)CCN(CC)CC(=O)Nc1cc2c(cc1C(C)=O)OCO2` [compound 136], 179 nM.
The same measure, in the same setting: with `CCOC(=O)[C@@H]1CCCC[C@H]1N(C)CC(=O)Nc1cc2c(cc1C(C)=O)OCO2` [compound 137] the figure was 2830 nM; with `CC(=O)c1cc2c(cc1NC(=O)CN(C)C1CCCN(C(=O)OC(C)(C)C)C1)OCO2` (stereo not shown) [compound 138], 150 nM.
With `CC(=O)c1cc2c(cc1NC(=O)CNC1CCN(C(=O)OC(C)(C)C)CC1)OCO2` [compound 139], for the setting “Table 4”, the IC50 is 176 nM.
On to `CC(=O)c1cc2c(cc1NC(=O)CN(C)C1CCN(C(=O)OC(C)(C)C)CC1)OCO2` [compound 140], for which the IC50 (Table 4) stood at 433 nM.
Consider `CCOC(=O)C1CCC(N(C)CC(=O)Nc2cc3c(cc2C(C)=O)OCO3)CC1` (stereo not shown) [compound 141], for which the IC50 (Table 4) was determined as 168 nM.
For the compound `CCOC(=O)CCN(C)CC(=O)Nc1cc2c(cc1OC)OCO2` [compound 142], the IC50 (Table 4) came out at 230 nM.
With `COc1cc2c(cc1NC(=O)CN1CCOCC1)OCO2` [compound 143], for the setting “Table 4”, the half-maximal inhibitory concentration (IC50) was determined as 142 nM.
On to `COc1cc2c(cc1NC(=O)CN1CCCC(O)C1)OCO2` (stereo not shown) [compound 144], for which the IC50 (Table 4) was less than 2000 nM.
The same measure, in the same setting: in the case of `COc1cc2c(cc1NC(=O)CN1CCCC(OC)C1)OCO2` (stereo not shown) [compound 145] it was 575 nM; in that of `COc1cc2c(cc1NC(=O)CN1CCC(O)CC1)OCO2` [compound 146], less than 2000 nM; in that of `COc1cc2c(cc1NC(=O)CN1CCC(OC)CC1)OCO2` [compound 147], 448 nM.
Regarding `COc1cc2c(cc1NC(=O)CN1CCN(C(=O)OC(C)(C)C)CC1)OCO2` [compound 148], the IC50 (Table 4) was less than 2000 nM.
On the same count and under the same terms, in the case of `COc1cc2c(cc1NC(=O)CN1CCCc3cccc(F)c31)OCO2` [compound 149] it was 885 nM; in that of `COc1cc2c(cc1NC(=O)CN1CCc3ccccc31)OCO2` [compound 150], 393 nM; in that of `CCOC(=O)C1CCCN(CC(=O)Nc2cc3c(cc2Cl)OCCO3)C1` (stereo not shown) [compound 151], 152 nM.
Same read-out and setting: with `CC(=O)c1cc2c(cc1NC(=O)CN1CCOCC1)OCCO2` [compound 152] the figure was 630 nM; with `CCOC(=O)C1CCN(CC(=O)Nc2cc3c(cc2C(C)=O)OCCO3)CC1` [compound 153], 24 nM.
For `CNC(=O)C1CCCN(CC(=O)Nc2cc3c(cc2C(C)=O)OCO3)C1` (stereo not shown) [compound 154, 1-(2-((6-Acetylbenzo[d][1,3]dioxol-5-yl)amino)-2-oxoethyl)-N-methylpiperidine-3-carboxamide], where the note is “Table 5”, the IC50 amounted to 24 nM.
For the compound `CCNC(=O)C1CCCN(CC(=O)Nc2cc3c(cc2C(C)=O)OCO3)C1` (stereo not shown) [compound 155], under “Table 5”, the IC50 is 210 nM.
On the same count and under the same terms, in the case of `CC(=O)c1cc2c(cc1NC(=O)CN1CCCC(C(=O)NCc3ccccc3)C1)OCO2` (stereo not shown) [compound 156] it was 114 nM; in that of `CC(=O)c1cc2c(cc1NC(=O)CN1CCCC(C(=O)Nc3ccccc3)C1)OCO2` (stereo not shown) [compound 157], 565 nM.
On the same count and under the same terms, with `CC(=O)c1cc2c(cc1NC(=O)CN1CCCC(C(=O)N(C)C)C1)OCO2` (stereo not shown) [compound 158] the figure was 107 nM; with `CC(=O)c1cc2c(cc1NC(=O)CN1CCCC(C(=O)N3CCOCC3)C1)OCO2` (stereo not shown) [compound 159], 497 nM.
Still for that read-out and setting: in the case of `CNC(=O)C1CCCCN1CC(=O)Nc1cc2c(cc1C(C)=O)OCO2` (stereo not shown) [compound 160] it was 1270 nM.
Consider `CNC(=O)C1CCN(CC(=O)Nc2cc3c(cc2C(C)=O)OCO3)CC1` [compound 161], for which the IC50 (Table 5) was 1350 nM.
Still for that read-out and setting: with `CCNC(=O)C1CCN(CC(=O)Nc2cc3c(cc2C(C)=O)OCO3)CC1` [compound 162] the figure was 747 nM; with `CC(=O)c1cc2c(cc1NC(=O)CN1CCC(C(=O)Nc3cccnc3)CC1)OCO2` [compound 163], 459 nM; with `CC(=O)c1cc2c(cc1NC(=O)CN1CCC(C(=O)Nc3ccccc3)CC1)OCO2` [compound 164], 2090 nM.
Consider `CC(=O)c1cc2c(cc1NC(=O)CN1CCC(C(=O)NCc3ccccc3)CC1)OCO2` [compound 165], for which the IC50 (Table 5) was determined as 1400 nM.
With `CC(=O)NC1CCN(CC(=O)Nc2cc3c(cc2C(C)=O)OCO3)CC1` [compound 166, 2-(4-Acetamidopiperidin-1-yl)-N-(6-acetylbenzo[d][1,3]dioxol-5-yl)acetamide], the IC50 (Table 6) was 264 nM.
As to `CCC(=O)NC1CCN(CC(=O)Nc2cc3c(cc2C(C)=O)OCO3)CC1` [compound 167], the 50% inhibitory concentration (IC50) (Table 6) was found to be 310 nM.
On to `CC(=O)c1cc2c(cc1NC(=O)CN1CCC(NC(=O)C(C)C)CC1)OCO2` [compound 168], for which the IC50 (Table 6) turned out to be 140 nM.
As to `CC(=O)c1cc2c(cc1NC(=O)CN1CCC(NC(=O)CC(C)C)CC1)OCO2` [compound 169], the IC50 (Table 6) amounted to 140 nM.
The same measure, in the same setting: in the case of `CC(=O)c1cc2c(cc1NC(=O)CN1CCC(CNC(=O)CC(C)C)CC1)OCO2` [compound 170] it was 188 nM; in that of `CC(=O)c1cc2c(cc1NC(=O)CN1CCC(NC(=O)c3ccccc3)CC1)OCO2` [compound 171], 60 nM; in that of `CC(=O)c1cc2c(cc1NC(=O)CN1CCC(NC(=O)c3ccco3)CC1)OCO2` [compound 172], 690 nM.
On the same count and under the same terms, in the case of `CC(=O)c1cc2c(cc1NC(=O)CN1CCC(NC(=O)c3cccs3)CC1)OCO2` [compound 173] it was 110 nM.
On the same count and under the same terms, with `CC(=O)c1cc2c(cc1NC(=O)CN1CCC(NC(=O)c3ccccn3)CC1)OCO2` [compound 174] the figure was 270 nM.
With `CC(=O)c1cc2c(cc1NC(=O)CN1CCC(NC(=O)c3cccnc3)CC1)OCO2` [compound 175], the IC50 (Table 6) came to 110 nM.
The same measure, in the same setting: with `CC(=O)c1cc2c(cc1NC(=O)CN1CCC(NC(=O)c3ccncc3)CC1)OCO2` [compound 176] the figure was 450 nM.

What is called IC50 is the concentration at which inhibition is half-maximal.
